Measurements taken from patent US9029135B2 (priority 2009, dated 2015).
“And” between values parts separate entries of the source, which are not always exact repeats. Equal entries are not always repeated.

Assays:
APL cells = test: APL mouse model survival, Kaplan-Meier, mice followed for two years; format: in vivo, FVB/N mice; settings: Kaplan-Meier survival curves
Method: The effect of different DNA constructs on an APL mouse model was studied using the protocol disclosed in Padua et al. (2003, Nature Medicine 9:1413-1417). Briefly, 10^4 APL cells were injected to FVB/N mice. Then an ATRA pellet, which releases 5 mg/day of ATRA for 21 days, was introduced behind the neck of the mice with a trochar. DNA (2×50 micrograms of plasmid) was injected the day after introducing the ATRA pellet, and every 20 days for a total of three injections. The following DNA constructs were injected to the mice: • the pVaxKanAS construct, also referred to as pVax14; • the pCDNA3PML-RARαFrC construct (VVACS01); • the pVaxPML-RARαFrC construct; and • the pCDNA3PML-RARαASFrC construct (VVACS04).
A pellet purchased from the manufacturer of the ATRA pellet (Innovative Research, Sarasota, USA) was used as a placebo.
The mice were followed for two years and Kaplan-Meier curves were constructed.
The results are shown on FIG. 2 and in Table 1 herebelow. The log-rank (Mantel-Cox) and general Wilcoxon tests were applied to the Kaplan-Meier curves. Both statistical tests led to identical conclusions in terms of significance.

MDS mouse model = test: MDS mouse model, combination of KanAS, ATRA and 5-azacytidine, survival; format: in vivo; settings: MDS mice, individual mouse; alive = still alive on 24 Mar. 2010
Method: The MDS mouse model described in Omidvar et al. (2007, Cancer Res. 67:11657-67) was used to study the effect of the combination of KanAS, ATRA and 5-azacytidine on MDS.
100 microliters of 1 mg/ml solution of 5-Azacytidine was injected IP to the mice on the day of diagnosis and then on Mondays, Wednesdays and Fridays until death of the mice.
ATRA was administered through a 10 mg 21 day release pellet
The vaccination protocol was as follows: 100 micrograms of DNA (VVACS02 or pVax14 or pVaxKanAS) were administered […] diagnosis (day 0), which corresponded to the day on which the peripheral blood platelet count fell below normal (<10^5/microliter). On day 20 and on day 40, 2×50 micrograms of DNA were injected again.
The mice were randomly divided into four groups after twelve 5-azacytidine injections: • 5-Azacytidine (n=5) • 5-azacytidine+ATRA (n=4) • 5-azacytidine+VVACS02 DNA (n=4) • 5-azacytidine+ATRA+VVACS02 DNA (n=4)

Structure (SMILES): CC1=C(/C=C/C(C)=C/C=C/C(C)=C/C(=O)O)C(C)(C)CCC1 [ATRA, all-trans retinoic acid]
- general Wilcoxon Chi-2 value (APL cells; V.S. placebo): 5.1827E+01
- general Wilcoxon significance (p bound) (APL cells; V.S. placebo): p < 0.0001
- log-rank (Mantel-Cox) Chi-2 value (APL cells; V.S. placebo): 6.0018E+01
- log-rank (Mantel-Cox) significance (p bound) (APL cells; V.S. placebo): p < 0.0001
- general Wilcoxon Chi-2 value (APL cells; V.S. placebo + DNA): 1.6318E+01
- general Wilcoxon significance (p bound) (APL cells; V.S. placebo + DNA): p < 0.0001
- log-rank (Mantel-Cox) Chi-2 value (APL cells; V.S. placebo + DNA): 8.7059E+00
- log-rank (Mantel-Cox) significance (p bound) (APL cells; V.S. placebo + DNA): p < 0.005

Structure (SMILES): Nc1ncn([C@@H]2O[C@H](CO)[C@@H](O)[C@H]2O)c(=O)n1 [5-azacytidine]
- Days alive from treatment (MDS mouse model): 33 days and Alive on 24 Mar. 2010 (112 days) and 72 days and Alive on 24 Mar. 2010 (75 days) and 37 days
